Test results from patent publication US6780972B2, “Method for the synthesis of peptide salts, their use and the pharmaceutical preparations, containing peptide salts” (Zentaris GmbH, priority 2000, dated 2004).
Non-standard residues stand in square brackets, D forms with d. Residues, ends and D or L forms follow the SMILES beside them. dPhe(4-Cl) = N[C@H](Cc1ccc(Cl)cc1)C(=O)O; d2Nal = N[C@H](Cc1ccc2ccccc2c1)C(=O)O; dCit = NC(=O)NCCC[C@@H](N)C(=O)O; d3Pal = N[C@H](Cc1cccnc1)C(=O)O

Tests used:
[1] = Duration of effect / period of action after administration in man; type: in vivo
Procedure: (§1) The Cetrorelix embonate (2:1) lyophilysate (30 mg), obtained according to Example 1, is resuspended in 2 mL of water for injection purposes and can then be administered parenterally, preferable subcutaneously (s.c.) or intramuscularly (i.m.)
(§2) For the s.c. administration, the bioavailability of the Cetrorelix embonate (2:1) is about 30 to 50% (100%=intravenously administered Cetrolix acetate). […] The duration of the effect depends on the dose; for a dose of 30 to 150 mg, it is 2 to 8 weeks or longer. The inventive Cetrorelix embonate (2:1) lyophilysate has already been investigated in Clinical Phase I in man.
(§3) The period of action exceeded 700 hours. The plasma level was constant at about 2 ng/mL 150 hours after the administration. The bioavailability was abut 40%.

[2] = Cetrorelix plasma concentration and bioavailability after administration of the Cetrorelix embonate (2:1) lyophilysate in man (Clinical Phase I); type: in vivo
Procedure: as §1, §2, §3

CC(=O)N[C@H](Cc1ccc2ccccc2c1)C(=O)N[C@H](Cc1ccc(Cl)cc1)C(=O)N[C@H](Cc1cccnc1)C(=O)N[C@@H](CO)C(=O)N[C@@H](Cc1ccc(O)cc1)C(=O)N[C@H](CCCNC(N)=O)C(=O)N[C@@H](CC(C)C)C(=O)N[C@@H](CCCNC(=N)N)C(=O)N1CCC[C@H]1C(=O)N[C@H](C)C(N)=O [Cetrorelix embonate (2:1), Cetrorelix embonate] (Ac-[d2Nal][dPhe(4-Cl)][d3Pal]SY[dCit]LRP[dA]-NH2; N-terminus and C-terminus assumed)
period of action ([1]; 60 mg in man, FIG. 1): exceeded 700 hours
duration of the effect ([1]; dose of 30 to 150 mg, depends on the dose, 'or longer'): 2 to 8 weeks
burst effect (ca. 100 ng/mL) ([2]; 60 mg in man, FIG. 1): could not be detected
bioavailability ([2]; human, in vivo, subcutaneous, s.c. administration, 100% = intravenously administered Cetrolix acetate): 30 to 50%
bioavailability ([2]; human, plasma, 60 mg in man, FIG. 1): ~40%
level at 150 h ([2]; human, plasma, 60 mg in man, constant 150 hours after the administration, FIG. 1): ~2 ng/mL
burst effect ([2]; in patients): slight or even absent
